Results: article PMC5111045, “Modulation of NMDA channel gating by Ca^2+ and Cd^2+ binding to the external pore mouth” (Scientific Reports, 2016)

Experiments:
[1] = target: T1, NMDA receptor channel (GluN1a variant/GluN2B), wild-type (Rattus norvegicus, UniProt P35439+Q00960); assay: Outside-out patch recordings of NMDA receptor currents, wild-type channel expressed in Xenopus oocytes; assay type: cell-based; conditions: 2 mM extracellular Ca2+
T1 construct: expressed in transfected cells; host or cells: Xenopus laevis oocytes (cRNA injection)
T1 sequence (Q00960 27-1482, other chains not shown): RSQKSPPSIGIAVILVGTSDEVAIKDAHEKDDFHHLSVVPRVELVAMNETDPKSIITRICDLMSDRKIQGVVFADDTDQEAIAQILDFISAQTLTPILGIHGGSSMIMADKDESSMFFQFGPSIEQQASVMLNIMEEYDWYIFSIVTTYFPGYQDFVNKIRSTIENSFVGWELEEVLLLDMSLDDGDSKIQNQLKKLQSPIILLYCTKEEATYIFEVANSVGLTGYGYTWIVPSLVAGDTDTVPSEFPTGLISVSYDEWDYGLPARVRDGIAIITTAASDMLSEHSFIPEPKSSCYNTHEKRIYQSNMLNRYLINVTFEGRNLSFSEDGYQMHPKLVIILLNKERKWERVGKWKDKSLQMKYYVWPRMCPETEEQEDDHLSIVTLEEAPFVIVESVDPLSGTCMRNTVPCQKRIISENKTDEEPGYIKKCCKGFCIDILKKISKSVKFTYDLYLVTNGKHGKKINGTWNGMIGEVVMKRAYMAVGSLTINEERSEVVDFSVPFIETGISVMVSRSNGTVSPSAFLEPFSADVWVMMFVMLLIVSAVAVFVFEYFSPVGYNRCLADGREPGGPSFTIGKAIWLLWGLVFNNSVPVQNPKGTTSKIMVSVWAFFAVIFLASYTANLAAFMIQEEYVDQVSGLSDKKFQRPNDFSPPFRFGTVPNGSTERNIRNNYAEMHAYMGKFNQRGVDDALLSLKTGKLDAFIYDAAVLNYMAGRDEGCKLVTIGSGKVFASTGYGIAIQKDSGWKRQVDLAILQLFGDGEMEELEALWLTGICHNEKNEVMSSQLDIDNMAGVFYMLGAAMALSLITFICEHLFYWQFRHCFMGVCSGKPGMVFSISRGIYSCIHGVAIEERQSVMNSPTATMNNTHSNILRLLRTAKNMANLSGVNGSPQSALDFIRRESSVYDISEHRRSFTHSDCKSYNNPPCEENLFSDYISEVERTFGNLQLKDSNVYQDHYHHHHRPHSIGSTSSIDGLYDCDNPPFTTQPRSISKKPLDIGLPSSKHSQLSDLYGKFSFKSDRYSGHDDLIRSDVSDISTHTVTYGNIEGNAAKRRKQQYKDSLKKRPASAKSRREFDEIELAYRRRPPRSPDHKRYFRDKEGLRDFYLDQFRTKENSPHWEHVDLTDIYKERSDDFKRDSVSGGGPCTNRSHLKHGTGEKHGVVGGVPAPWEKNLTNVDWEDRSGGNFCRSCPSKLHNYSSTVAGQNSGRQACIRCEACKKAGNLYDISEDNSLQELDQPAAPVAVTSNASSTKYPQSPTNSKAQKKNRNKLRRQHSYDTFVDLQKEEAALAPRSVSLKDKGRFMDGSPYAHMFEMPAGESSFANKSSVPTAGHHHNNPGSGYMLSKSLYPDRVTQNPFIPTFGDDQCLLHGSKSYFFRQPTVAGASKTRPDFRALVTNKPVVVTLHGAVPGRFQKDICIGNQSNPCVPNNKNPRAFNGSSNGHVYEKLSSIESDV
Procedure: (§1) The rat GluN1a variant and GluN2B cDNA clones were used in this study. Point mutations were made by site-directed mutagenesis using the QuickChange Site-Directed Mutagenesis kit (Stratagene, La Jolla, CA). Mutations were verified by DNA sequencing to ensure the lack of any inadvertent mutations. The capped cRNA transcripts were then synthesized using T7 and T3 mMESSAGE mMACHINE transcription kits (Ambion, Austin, TX), and were stored at −80 °C.
(§2) This study was carried out in accordance with the ethical information guidelines of the National Taiwan University College of Medicine. The protocols for the care and use of animals were approved by the National Taiwan University College of Medicine and College of Public Health Institutional Animal Care and Use Committee (IACUC). All efforts were made to minimize animal suffering. Adult female Xenopus laevis were anesthetized, and ovarian lobes containing stage V or VI oocytes were removed. Oocytes were dispersed after manual disruption of the egg sac, and were digested for 1 hr with collagenase type I (2 mg/ml) to remove the follicular layer. A mixture of GluN1a variant and GluN2B cRNAs with a ratio of 1:5 (i.e., 0.1–4 ng of GluN1a variant and 0.5–20 ng of GluN2B) (Kashiwagi et al. 2002) was injected into oocytes. Oocytes were maintained in the culture medium (96 mM NaCl, 2 mM KCl, 1.8 mM MgCl2, 1.8 mM CaCl2, 5 mM HEPES, and 50 ug/ml gentamycin, pH 7.6) at 18 °C for 2–3 days before electrophysiological recordings.
Oocytes were placed in a recording chamber containing Mg^2+-free bath solution (150 mM NaMeSO3, 5 mM NaCl, and 10 mM HEPES; pH 7.4). Outside-out patch recordings were obtained using fire-polished pipettes pulled from borosilicate capillaries (outer diameter, 1.55–1.60 mm; Hilgenberg, Malsfeld, Germany). Recording pipettes ([…]) were filled with the pipette solution containing 150 mM NaMeSO3, 5 mM NaCl, 5 mM EGTA, and 10 mM HEPES (pH 7.4). A seal was formed, and the outside-out patch configuration was obtained in Tyrode’s solution (150 mM NaCl, 4 mM KCl, 2 mM MgCl2, 2 mM CaCl2, and 10 mM HEPES; pH 7.4). The patch was then lifted from the bottom of the chamber and moved in front of a set of “theta glass” tubes (2.0 mm outer diameter pulled to an opening of ~300 μm in width; Warner Instrument, Hamden, CT) emitting external recording solutions. The standard external solution was Mg^2+-free Ca^2+-free Tyrode’s solution (pH 7.4), but 2 mM Ca^2+ or 0.1–100 μM Cd^2+ may be added to the external recording solution as specified in each different experimental condition. The glass-tube holder was connected to a stepper motor (SF-77B perfusion system, Warner Instrument) to achieve fast switch for rapid solution change. Drugs and salts were purchased from Sigma (St. Louis, MO). NMDA, glycine, and Cd^2+ were dissolved in water to make 100, 100, and 10 mM stock solutions, respectively. The stock solutions were then diluted into the external recording solution to make 1 to 100 μM Cd^2+, 1 to 300 μM NMDA, and 30 μM glycine. The NMDA currents were recorded at a membrane potential of −70 mV and at room temperature (~25 °C) with an […] amplifier, filtered at 1 kHz with a four-pole Bessel filter, digitized at 500 μs intervals, and stored using a Digidata-1322A analog/digital interface along with the pCLAMP software (all from MDS Analytical Technologies, Sunnyvale, CA). To plot the activation and the desensitization curves, a patch was moved from the NMDA- and glycine-free external solution to the external solution containing 0 to 100 μM NMDA and 30 μM glycine for 3 s (the desensitization prepulse), and then moved to another external solution containing 300 μM NMDA and 30 μM glycine for 3 s (the test pulse) before being moved back to the NMDA-free external solution again. The amplitude of the sustained currents in the desensitization prepulse in each different concentration of NMDA is normalized to the maximal current and plotted against the NMDA concentration to obtain the activation curve. […]

[2] = target: T2, E661AE662A double mutant NMDA channel (Rattus norvegicus, UniProt P35439+Q00960, E661A/E662A); assay: Outside-out patch recordings, E661AE662A double mutant NMDA channel; assay type: cell-based; conditions: 2 mM extracellular Ca2+; n = 6, WT n = 9; P = 5.1*10^−5
T2 construct: expressed in transfected cells; host or cells: Xenopus laevis oocytes (cRNA injection)
T2 sequence (Q00960 27-1482, other chains not shown): as above
Procedure: as §1, §2
Oocytes were placed in a recording chamber containing Mg^2+-free bath solution (150 mM NaMeSO3, 5 mM NaCl, and 10 mM HEPES; pH 7.4). Outside-out patch recordings were obtained using fire-polished pipettes pulled from borosilicate capillaries (outer diameter, 1.55–1.60 mm; Hilgenberg, Malsfeld, Germany). Recording pipettes ([…]) were filled with the pipette solution containing 150 mM NaMeSO3, 5 mM NaCl, 5 mM EGTA, and 10 mM HEPES (pH 7.4). A seal was formed, and the outside-out patch configuration was obtained in Tyrode’s solution (150 mM NaCl, 4 mM KCl, 2 mM MgCl2, 2 mM CaCl2, and 10 mM HEPES; pH 7.4). The patch was then lifted from the bottom of the chamber and moved in front of a set of “theta glass” tubes (2.0 mm outer diameter pulled to an opening of ~300 μm in width; Warner Instrument, Hamden, CT) emitting external recording solutions. The standard external solution was Mg^2+-free Ca^2+-free Tyrode’s solution (pH 7.4), but 2 mM Ca^2+ or 0.1–100 μM Cd^2+ may be added to the external recording solution as specified in each different experimental condition. The glass-tube holder was connected to a stepper motor (SF-77B perfusion system, Warner Instrument) to achieve fast switch for rapid solution change. Drugs and salts were purchased from Sigma (St. Louis, MO). NMDA, glycine, and Cd^2+ were dissolved in water to make 100, 100, and 10 mM stock solutions, respectively. The stock solutions were then diluted into the external recording solution to make 1 to 100 μM Cd^2+, 1 to 300 μM NMDA, and 30 μM glycine. The NMDA currents were recorded at a membrane potential of −70 mV and at room temperature (~25 °C) with an […] amplifier, filtered at 1 kHz with a four-pole Bessel filter, digitized at 500 μs intervals, and stored using a Digidata-1322A analog/digital interface along with the pCLAMP software (all from MDS Analytical Technologies, Sunnyvale, CA). […]

[3] = target: T3, T647A (GluN2B) mutant NMDA channel (Rattus norvegicus, UniProt P35439+Q00960, T647A); assay: Outside-out patch recordings, T647A (GluN2B) mutant NMDA channel; assay type: cell-based; conditions: 2 mM Ca2+; P = 0.028
T3 construct: expressed in transfected cells; host or cells: Xenopus laevis oocytes (cRNA injection)
T3 sequence (Q00960 27-1482 T647A, other chains not shown): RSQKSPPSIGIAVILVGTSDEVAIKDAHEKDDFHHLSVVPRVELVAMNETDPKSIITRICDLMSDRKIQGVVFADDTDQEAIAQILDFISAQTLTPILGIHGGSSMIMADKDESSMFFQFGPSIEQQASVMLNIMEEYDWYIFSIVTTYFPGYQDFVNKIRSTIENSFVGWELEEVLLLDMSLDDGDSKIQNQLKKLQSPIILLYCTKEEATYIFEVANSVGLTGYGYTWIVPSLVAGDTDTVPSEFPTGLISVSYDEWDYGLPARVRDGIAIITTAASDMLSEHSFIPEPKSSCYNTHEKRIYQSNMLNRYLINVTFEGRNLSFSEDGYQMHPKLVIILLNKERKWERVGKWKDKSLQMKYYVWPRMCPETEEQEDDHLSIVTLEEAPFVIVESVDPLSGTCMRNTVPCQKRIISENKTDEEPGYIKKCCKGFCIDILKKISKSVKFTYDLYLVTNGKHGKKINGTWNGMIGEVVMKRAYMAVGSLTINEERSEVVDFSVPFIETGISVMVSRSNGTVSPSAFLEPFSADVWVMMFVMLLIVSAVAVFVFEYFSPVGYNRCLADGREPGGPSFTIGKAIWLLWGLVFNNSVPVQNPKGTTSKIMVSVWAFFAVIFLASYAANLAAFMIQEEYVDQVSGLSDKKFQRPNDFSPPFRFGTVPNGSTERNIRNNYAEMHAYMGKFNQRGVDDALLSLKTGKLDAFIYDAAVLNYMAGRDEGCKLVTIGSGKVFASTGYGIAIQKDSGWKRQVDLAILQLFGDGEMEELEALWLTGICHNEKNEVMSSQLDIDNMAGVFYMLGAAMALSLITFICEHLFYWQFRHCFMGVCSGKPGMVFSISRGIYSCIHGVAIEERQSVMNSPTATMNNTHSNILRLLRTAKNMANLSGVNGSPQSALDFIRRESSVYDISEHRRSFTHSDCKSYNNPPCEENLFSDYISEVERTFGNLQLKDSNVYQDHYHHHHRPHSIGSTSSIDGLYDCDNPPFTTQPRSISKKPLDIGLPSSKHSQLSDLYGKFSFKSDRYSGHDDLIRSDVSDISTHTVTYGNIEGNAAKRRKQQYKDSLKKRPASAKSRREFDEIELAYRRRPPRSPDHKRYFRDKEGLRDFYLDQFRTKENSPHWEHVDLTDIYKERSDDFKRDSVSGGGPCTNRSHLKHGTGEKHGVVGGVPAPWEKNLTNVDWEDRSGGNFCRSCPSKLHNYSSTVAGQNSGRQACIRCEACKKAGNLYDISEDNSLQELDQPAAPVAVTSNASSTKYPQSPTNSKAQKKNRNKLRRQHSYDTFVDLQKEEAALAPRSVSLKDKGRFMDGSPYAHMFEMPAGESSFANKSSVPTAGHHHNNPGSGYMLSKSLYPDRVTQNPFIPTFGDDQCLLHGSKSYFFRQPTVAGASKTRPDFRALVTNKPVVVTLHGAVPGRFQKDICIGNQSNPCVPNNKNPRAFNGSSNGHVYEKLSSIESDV
Procedure: as §1, §2
Oocytes were placed in a recording chamber containing Mg^2+-free bath solution (150 mM NaMeSO3, 5 mM NaCl, and 10 mM HEPES; pH 7.4). […] The NMDA currents were recorded at a membrane potential of −70 mV and at room temperature (~25 °C) with an […] amplifier, filtered at 1 kHz with a four-pole Bessel filter, digitized at 500 μs intervals, and stored using a Digidata-1322A analog/digital interface along with the pCLAMP software (all from MDS Analytical Technologies, Sunnyvale, CA). […]

wild-type NMDA channel = test system: wild-type NMDA channel; parameters: method as in PMID 12451122; conditions: 1 mM Ca2+; decreased from 73 pS; cited from earlier work
[4] = test system: triple mutant NMDA channel (three negatively charged DRPEER residues neutralized); parameters: method as in PMID 12451122; conditions: 1 mM Ca2+; decreased from 56 pS; cited from earlier work

**Q.** For [Ca+2] [Ca^2+], which “effect on NMDAR current, cation present during the NMDA pulse” value ([1]; 300 μM NMDA plus 30 μM glycine) is on record?
**A.** decreases the NMDAR current

**Q.** What about the “effect on NMDAR current peak, cation applied before but not during the NMDA pulse” value ([1]; closed channel) of the same compound?
**A.** evident decrease of the NMDAR current peak

**Q.** What about the “effect on sustained current (relative current) compared with WT channel” value [2] of the same compound?
**A.** significantly decreased

**Q.** And the “relative hook current after wash-off of agonists and blocking cation, compared with WT channel” value [3]?
**A.** significantly larger hook current

**Q.** And the “overall current flow through the NMDA channel in Ca2+” value (wild-type NMDA channel)?
**A.** 41 pS

**Q.** And the “overall current flow through the NMDA channel in Ca2+” value [4]?
**A.** 45 pS
